Publication PMC4237671 (Anesthesiology, 2014)
“Also recorded” adds a separate entry of the source. Where two headings read alike, the source gives them in different places.

Assays:
[1] = tested on: dogs; assay: Pilot experiments of midazolam dosing in dogs; assay type: in vivo, beagle dog; details: 0.1 - 0.2 mg/kg intravenous bolus per dose
[2] = tested on: dogs; assay: Observation of myoclonus during and after hypnotic infusion; details: for Persistence of myoclonus in the postinfusion period: after 2-h infusions; for Incidence of myoclonus during infusion: for all studies
[3] = tested on: dogs; assay: Loss of righting reflexes; assay type: in vivo, beagle dog
[4] = tested on: dogs; assay type: in vivo, beagle dog
[5] = tested on: dogs; assay: Pharmacodynamic modeling: plasma concentration vs anesthesia score; assay type: in vivo, beagle dog; details: bolus, n = 3 dogs; for γ (slope parameter): sigmoid Emax fit; for EC anesthesia score 3: venous plasma concentration when anesthesia score is 3
[6] = Stability testing of frozen formulated drug; assay type: physicochemical; details: 8 mg/ml in 20% sulfobutylether-β-cyclodextrin pH 7.4, stored frozen at -20°C
[7] = tested on: rats; details: cited from earlier work
[8] = tested on: rats; details: cited from earlier work; remark: listed apart in the source
[9] = Pharmacokinetics after single IV bolus; details: for Co: back-extrapolated; for Plasma concentration range during anesthetic recovery: after IV bolus, approximate
[10] = Pharmacokinetics after single bolus followed by 2-h infusion
[11] = tested on: adrenocortical responsiveness to ACTH1-24 stimulation; assay: Adrenocortical recovery after hypnotic infusion; details: for Plasma cortisol concentrations compared to vehicle group over time: after 2-h infusion, ACTH1-24 stimulated; for Shared Hill coefficient of in vivo adrenocortical concentration-response curves: both data sets fit to a single Hill coefficient
[12] = CPMM vs propofol 2-h infusion study, n = 4 dogs/group
[13] = CPMM vs etomidate 2-h infusion study, n = 4 dogs per group
[14] = IV bolus (CPMM 4 mg/kg, etomidate 2 mg/kg), n = 3 dogs
[15] = parent drug, IV bolus, n = 3 dogs
[16] = parent drug, IV bolus, n = 3 dogs, time zero to infinity
[17] = bolus followed by 2-h infusion, dogs
[18] = metabolite after IV bolus of parent, n = 3 dogs
[19] = metabolite, bolus followed by 2-h infusion of parent, n = 4 dogs

Cc1ncc2n1-c1ccc(Cl)cc1C(c1ccccc1F)=NC2 [midazolam]
Sedative effect [1]: no discernable sedative effect | Effect on myoclonus ([2]; 0.1 - 0.2 mg/kg intravenous bolus per dose during 2-h hypnotic infusions, dogs): effectively reduced the myoclonus

CC(C)c1cccc(C(C)C)c1O [propofol]
Dogs with myoclonus during infusion [2, 12]: two dogs had myoclonus

cyclopropyl-methoxycarbonyl metomidate [CPMM]
Duration of LoRR ([3]; 1 mg/kg IV bolus, n = 3 dogs): 1.8 ± 0.6 min | Duration of LoRR ([3]; 12 mg/kg IV bolus, n = 4 dogs): 10.9 ± 0.7 min | Relative hypnotic potency CPMM vs etomidate ([3]; dogs): half as potent; also recorded: approximately half that of etomidate | Bolus doses that induced LoRR in all dogs ([3]; dogs, IV bolus): ≥ 1 mg/kg | Slope of duration of LoRR vs logarithm of dose ([3]; dogs, IV bolus): 9.9 | X-intercept of duration of LoRR vs logarithm of dose ([3]; dogs, IV bolus): 0.88 mg/kg | LoRR at lower doses ([3]; dogs, IV bolus 0.25 mg/kg or 0.5 mg/kg): failed to induce LoRR in any dog | Time to induction of LoRR ([3]; dogs, IV bolus at doses ≥1 mg/kg): < 15 s | ED50 for loss of righting reflexes ([3]; dogs, IV bolus, approximate value from Hill fit): ~ 0.8 mg/kg | Time to recover from anesthesia score 3 to score 0 ([4]; bolus followed by 2-h infusion): 8 ± 3 min | Time to recover from anesthesia score 3 to score 2 ([4]; bolus followed by 2-h infusion): 4.4 ± 1.3 min | Dependence of hypnotic recovery times on infusion duration ([4]; bolus vs bolus plus 2-h infusion): independent of infusion duration | Recovery times from anesthesia score 3 to all lower scores compared to etomidate ([4]; single bolus CPMM 4 mg/kg vs etomidate 2 mg/kg): significantly shorter | Time to recover from anesthesia score 3 to score 0 ([4]; single bolus only (4 mg/kg)): 11 ± 3 min | Time to recover from anesthesia score 3 to score 1 ([4]; single bolus only (4 mg/kg)): 5.5 ± 0.7 min | Time to recover from anesthesia score 3 to score 2 ([4]; single bolus only (4 mg/kg)): 4.3 ± 1.2 min | γ (slope parameter) [5]: 1.3 0.7 – 1.9 | EC anesthesia score 3 [5]: 2,798 1,840 – 4,256 ng/ml | Stability of formulated drug [6]: no significant degradation over time | Hypnotic ED50 [7]: ~0.69 mg/kg | Slope of duration of hypnosis vs logarithm of dose [7]: 6.9 | Hypnotic recovery time following 2-h continuous infusion [8]: 4.2 min | Dogs with myoclonus during infusion [2, 13]: 4 dogs | Dogs with myoclonus during infusion [2, 12]: all four dogs had myoclonus | Persistence of myoclonus in the postinfusion period ([2]; dogs): ceased within several minutes | Incidence of myoclonus during infusion [2]: 8/8 | Plasma concentration in initial blood sample ([9]; 30 s after IV bolus (CPMM 4 mg/kg, etomidate 2 mg/kg), n = 3 dogs): 4,130 ± 640 ng/ml | Plasma concentration 10 min after administration [9, 14]: 330 ± 41 ng/mL | Co [9, 14]: 5,180 ± 1,120 ng/ml | Decrease of plasma concentration from initial to final blood sample (2 h) ([9]; IV bolus, dogs): decreased by four orders of magnitude | Plasma concentration at 10 min as percentage of initial blood sample ([9]; IV bolus, dogs): 8% | Plasma concentration range during anesthetic recovery ([9]; dogs): approximately 500 ng/ml | Normalized plasma concentration as percentage of that of etomidate ([9]; one hour after hypnotic bolus, dogs): 7% | CL [9, 15]: 211 ± 26 mL/kg/min | Vss [9, 15]: 1,880 ± 569 ml·kg^−1 | t1/2 ([9]; parent drug, IV bolus, n = 3 dogs, apparent terminal half-life): 16.1 ± 2.99 min | AUC [9, 16]: 19,200 ± 2,590 min-ng ml^−1 | Clearance relative to etomidate (fold higher) ([9]; single bolus, dogs): 14 X | Terminal elimination half-life relative to etomidate ([9]; single bolus, dogs): 27% | Vss relative to total body water volume in dogs (600 ml/kg) ([9]; single bolus, dogs): 3 X | Normalized plasma concentration as percentage of that of etomidate ([9]; ten minutes after hypnotic bolus, dogs): 33% | Decrease of plasma concentration from 30 to 60 min after the infusion ended [10, 17]: 22% | Half-life of decline beyond 30 min after infusion [10, 17]: ~ 90 min | Adrenal response to the second ACTH challenge compared to vehicle control ([11]; 180 min postinfusion, n = 4 dogs/group): normal adrenal response | Plasma cortisol concentrations compared to vehicle group over time ([11]; dogs): not significantly different from controls for all time points longer than 120 min after infusion termination | Half-time of adrenocortical recovery (normalized plasma cortisol) ([11]; after bolus plus 2-h infusion, n = 4 dogs): 215 min | Shared Hill coefficient of in vivo adrenocortical concentration-response curves [11]: -2.0 | ACTH-stimulated plasma cortisol concentration, fold higher vs etomidate group ([11]; equivalent postinfusion time points after 2-h infusion, dogs): 4- to 27 fold | In vivo IC50 for suppression of adrenocortical responsiveness to ACTH1-24 ([11]; plasma hypnotic concentration, dogs, Hill fit, estimated): 27 ng/mL

CC(c1ccccc1)n1cncc1C(=O)O (centres unmarked) [Etomidate Metabolite]
Plasma concentration in final blood samples 120 min after administration ([9]; after etomidate 2 mg/kg bolus, dogs): 708 ± 75 ng/mL | AUC [9, 18]: 236,000 ± 18,400 min·ng ml^−1 | Cmax [9, 18]: 2,370 ± 347 ng·ml^−1 | t1/2 [9, 18]: 61.4 ± 9.13 min | tmax [9, 18]: 18.3 ± 18.9 min | Cmax [10, 19]: 1,680 ±253 ng/ml | t1/2 [10, 19]: 69.3 ± 23.4 min

CCOC(=O)c1cncn1[C@H](C)c1ccccc1 [Etomidate, reference compound]
Duration of LoRR ([3]; 0.5 mg/kg IV bolus, n = 3 dogs): 2.7 ± 0.8 min | Duration of LoRR ([3]; 1.9 mg/kg IV bolus, n = 3 dogs): 17 ± 5 min | Relative hypnotic potency CPMM vs etomidate ([3]; dogs): approximately twice as potent as CPMM | Bolus doses that induced LoRR in all dogs ([3]; dogs, IV bolus): 0.5 to 1.9 mg/kg | Slope of duration of LoRR vs logarithm of dose ([3]; dogs, IV bolus): 24 | X-intercept of duration of LoRR vs logarithm of dose ([3]; dogs, IV bolus): 0.37 mg/kg | Time after bolus administration of anesthetic recovery ([4]; CPMM 4 mg/kg or etomidate 2 mg/kg bolus, see fig. 3B): 9.0 to 13.8 min | γ (slope parameter) [5]: 1.7 0.9 – 2.4 | EC anesthesia score 1 ([5]; venous plasma concentration when anesthesia score is 1): 1,607 1,026 – 2,517 ng/ml | EC anesthesia score 3 [5]: 5,952 4,392 – 8,066 ng/ml | Dogs with myoclonus during infusion [2, 13]: 2 dogs | Persistence of myoclonus in the postinfusion period ([2]; dogs): up to approximately an hour | Incidence of myoclonus during infusion [2]: 2/4 | Co [9, 14]: 10,700 ± 1,440 ng/ml | Decrease of plasma concentration from initial to final blood sample (2 h) ([9]; IV bolus, dogs): 1.5 orders of magnitude | Plasma concentration at 10 min as percentage of initial blood sample ([9]; IV bolus, dogs): 25% | Plasma concentration range during anesthetic recovery ([9]; dogs): approximately 1,000 ng/ml | concentration at 30 s ([9]; beagle, dog, in vivo, 2 mg/kg): 9080 ng/mL | concentration at 10 min ([9]; beagle, dog, in vivo, 2 mg/kg): 2230 ng/mL | AUC ([9]; beagle, dog, in vivo, iv, 2 mg/kg, AUC, parent drug, IV bolus, n = 3 dogs, time zero to infinity): 1930 ng·h/mL | AUC [9, 16]: 139,000 ± 26,300 min-ng ml^−1 | Cmax ([10]; beagle, dog, in vivo): 2050 ng/mL | Plasma cortisol concentrations compared to vehicle group over time ([11]; dogs): remained significantly lower than those in the vehicle group throughout the duration of the study (>300 min) | Shared Hill coefficient of in vivo adrenocortical concentration-response curves [11]: -2.0
